# In PubChem BioAssay (NCI):
# “And” between values parts separate entries of the source, which are not always exact repeats. Identical values can stand only once.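 1) Cells in 96-well plates. 2) Compound, 48 h, 5 concentrations. 3) Linear interpolation between surrounding doses. 4) Unreached endpoint = highest concentration. GI50 marks 50% less growth. Definition used: TGI = concentration required for complete inhibition of growth.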
# Tested on: K-562 leukemia
# Test: DTP human tumour cell line panel, 48 h
SMILES,TGI,GI50 [µM]
CCCCCCCCCCCCCC1CCC(CC)N1 (stereo not given),33.3 µM,
COc1ccc2c(c1)C=C([N+](=O)[O-])C(C1OC(C)(C)OC1C1COC(C)(C)O1)O2 (stereo not given),4.88 µM,
CC(=O)OC1Oc2ccccc2-c2oc(=O)c(-c3cc4ccc(N(C)C)cc4oc3=O)cc21 (stereo not given),> 100 µM,2.98
CCC1(O)C(=O)OCc2c1cc1n(c2=O)Cc2cc3ccc(C=O)cc3nc2-1 (stereo not given),50 µM and 66 µM,1.39
CC1(C)C2CC(O)C1(C)CC2=O (stereo not given),> 100 µM,
COc1ccc2c(c1)C(=O)c1c-2n(CCCn2ccnc2)c(=O)c2ccccc12,> 100 µM,0.548
COc1cc2oc(-c3ccc(O)cc3)cc(=O)c2c(OC)c1OC,> 100 µM,
COc1ccc(N2C(=O)C3c4[nH]c5ccc(C)cc5c4C4CCC(C(C)(C)C)CC4C3C2=O)cc1 (stereo not given),41.2 µM,
CC/C=C\C[C@@H]1C/C=C2/C(=O)C=C[C@H]2C/C=C\CCCC(=O)O1,0.724 µM,0.239
Cc1ccc(S(=O)(=O)n2c(-c3ccccc3)c(-c3ccccc3)c3ccccc32)cc1,> 100 µM,
NC(=S)N/N=C/c1ccc(OC(=O)COc2ccc(Cl)cc2)cn1,> 100 µM,1.36
O=C(N/N=C/c1cccc(O)c1O)c1ccccc1,> 100 µM,1.29
c1ccc(C2=NNC3c4ccccc4-c4ccccc4N3C2)cc1 (stereo not given),82 µM,
CN/N=C(/CCN1CCCC1)CC(c1ccccc1)c1c(O)c2ccccc2oc1=O (stereo not given),> 100 µM,
COc1ccc2c(c1)CCC1C3(CCCC21C)OCCO3 (stereo not given),42.1 µM,
COc1ccc(OC)c(/C=C/C(=O)N/N=C/c2ccc(Cl)cc2)c1,> 100 µM,0.042
Cc1cc(C)nc(NS(=O)(=O)c2ccc(Nc3c4ccccc4nc4c(C(=O)Nc5ccc(S(=O)(=O)Nc6cc(C)on6)cc5)cccc34)cc2)n1,80.1 µM,
CCN(CC)c1sc(N(CC)CC)c2c1SSSSS2,> 100 µM,1.64
COc1cc(C2=NN(C(C)=O)C(c3ccc(OC(C)=O)cc3OC(C)=O)O2)c(OC(C)=O)c2ccccc12 (stereo not given),> 91.2 µM,0.872
COc1cc(OC(=O)c2c(O)cc(O)c(O)c2C)cc(C)c1C(=O)Oc1cc(C)c(C(=O)O)c(O)c1,> 100 µM,
COC(=O)Nc1nc2ccc(Oc3ccc(NC(=O)Nc4ccccc4)cc3)cc2[nH]1,> 9.63 µM,0.105
CCN(CC)CCCC(C)Nc1c(C)cnc2cc(Cl)c(C)cc12 (stereo not given),8.36 µM,1.26
Cc1ccc2nc3c(C(=O)NCCN(C)C)cccc3nc2c1,9.27 µM,

# Tested on: COLO 205 colon
# Test: DTP human tumour cell line panel, 48 h
SMILES,TGI,GI50 [µM]
C[N+](C)(C)CC1CCCC(C[N+](C)(C)C)C1=O (stereo not given),0.923 µM,
CCCCCCCCCCCCCC1CCC(CC)N1 (stereo not given),28.9 µM,
COc1ccc2c(c1)C=C([N+](=O)[O-])C(C1OC(C)(C)OC1C1COC(C)(C)O1)O2 (stereo not given),30 µM,
CC(=O)OC1Oc2ccccc2-c2oc(=O)c(-c3cc4ccc(N(C)C)cc4oc3=O)cc21 (stereo not given),41.5 µM,16.4
CCC1(O)C(=O)OCc2c1cc1n(c2=O)Cc2cc3ccc(C=O)cc3nc2-1 (stereo not given),12.5 µM and 31.3 µM,5.77
CC1(C)C2CC(O)C1(C)CC2=O (stereo not given),> 100 µM,
COc1ccc2c(c1)C(=O)c1c-2n(CCCn2ccnc2)c(=O)c2ccccc12,14.3 µM,0.579
COc1cc2oc(-c3ccc(O)cc3)cc(=O)c2c(OC)c1OC,> 100 µM,
COc1ccc(N2C(=O)C3c4[nH]c5ccc(C)cc5c4C4CCC(C(C)(C)C)CC4C3C2=O)cc1 (stereo not given),> 100 µM,
CC/C=C\C[C@@H]1C/C=C2/C(=O)C=C[C@H]2C/C=C\CCCC(=O)O1,1.05 µM,0.284
Cc1ccc(S(=O)(=O)n2c(-c3ccccc3)c(-c3ccccc3)c3ccccc32)cc1,> 100 µM,
NC(=S)N/N=C/c1ccc(OC(=O)COc2ccc(Cl)cc2)cn1,> 100 µM,31.8
O=C(N/N=C/c1cccc(O)c1O)c1ccccc1,> 55.7 µM,1.97
c1ccc(C2=NNC3c4ccccc4-c4ccccc4N3C2)cc1 (stereo not given),37.3 µM,
CN/N=C(/CCN1CCCC1)CC(c1ccccc1)c1c(O)c2ccccc2oc1=O (stereo not given),> 91.4 µM,
COc1ccc2c(c1)CCC1C3(CCCC21C)OCCO3 (stereo not given),35.4 µM,
COc1ccc(OC)c(/C=C/C(=O)N/N=C/c2ccc(Cl)cc2)c1,0.599 µM,0.0935
Cc1cc(C)nc(NS(=O)(=O)c2ccc(Nc3c4ccccc4nc4c(C(=O)Nc5ccc(S(=O)(=O)Nc6cc(C)on6)cc5)cccc34)cc2)n1,34.1 µM,
CCN(CC)c1sc(N(CC)CC)c2c1SSSSS2,,0.937
COc1cc(C2=NN(C(C)=O)C(c3ccc(OC(C)=O)cc3OC(C)=O)O2)c(OC(C)=O)c2ccccc12 (stereo not given),10.1 µM,2.58
COc1cc(OC(=O)c2c(O)cc(O)c(O)c2C)cc(C)c1C(=O)Oc1cc(C)c(C(=O)O)c(O)c1,> 100 µM,
COC(=O)Nc1nc2ccc(Oc3ccc(NC(=O)Nc4ccccc4)cc3)cc2[nH]1,0.487 µM,0.0835
CCN(CC)CCCC(C)Nc1c(C)cnc2cc(Cl)c(C)cc12 (stereo not given),> 38.6 µM,3.96
Cc1ccc2nc3c(C(=O)NCCN(C)C)cccc3nc2c1,> 22.4 µM,

# Tested on: SF-539 CNS
# Test: DTP human tumour cell line panel, 48 h
SMILES,TGI [µM],GI50 [µM]
C[N+](C)(C)CC1CCCC(C[N+](C)(C)C)C1=O (stereo not given),8.8,
CCCCCCCCCCCCCC1CCC(CC)N1 (stereo not given),32.1,
COc1ccc2c(c1)C=C([N+](=O)[O-])C(C1OC(C)(C)OC1C1COC(C)(C)O1)O2 (stereo not given),19.3,
CC(=O)OC1Oc2ccccc2-c2oc(=O)c(-c3cc4ccc(N(C)C)cc4oc3=O)cc21 (stereo not given),27.3,12.4
CCC1(O)C(=O)OCc2c1cc1n(c2=O)Cc2cc3ccc(C=O)cc3nc2-1 (stereo not given),,1.69
CC1(C)C2CC(O)C1(C)CC2=O (stereo not given),> 100,
COc1ccc2c(c1)C(=O)c1c-2n(CCCn2ccnc2)c(=O)c2ccccc12,0.906,0.244
COc1cc2oc(-c3ccc(O)cc3)cc(=O)c2c(OC)c1OC,> 100,
COc1ccc(N2C(=O)C3c4[nH]c5ccc(C)cc5c4C4CCC(C(C)(C)C)CC4C3C2=O)cc1 (stereo not given),36.5,
CC/C=C\C[C@@H]1C/C=C2/C(=O)C=C[C@H]2C/C=C\CCCC(=O)O1,2.97,0.533
Cc1ccc(S(=O)(=O)n2c(-c3ccccc3)c(-c3ccccc3)c3ccccc32)cc1,> 100,
NC(=S)N/N=C/c1ccc(OC(=O)COc2ccc(Cl)cc2)cn1,22.8,3.64
O=C(N/N=C/c1cccc(O)c1O)c1ccccc1,15.3,0.642
c1ccc(C2=NNC3c4ccccc4-c4ccccc4N3C2)cc1 (stereo not given),50.5,
CN/N=C(/CCN1CCCC1)CC(c1ccccc1)c1c(O)c2ccccc2oc1=O (stereo not given),> 100,
COc1ccc2c(c1)CCC1C3(CCCC21C)OCCO3 (stereo not given),26.3,
COc1ccc(OC)c(/C=C/C(=O)N/N=C/c2ccc(Cl)cc2)c1,11.1,0.157
Cc1cc(C)nc(NS(=O)(=O)c2ccc(Nc3c4ccccc4nc4c(C(=O)Nc5ccc(S(=O)(=O)Nc6cc(C)on6)cc5)cccc34)cc2)n1,34.7,
CCN(CC)c1sc(N(CC)CC)c2c1SSSSS2,2.63,0.995
COc1cc(C2=NN(C(C)=O)C(c3ccc(OC(C)=O)cc3OC(C)=O)O2)c(OC(C)=O)c2ccccc12 (stereo not given),3.48,0.697
COc1cc(OC(=O)c2c(O)cc(O)c(O)c2C)cc(C)c1C(=O)Oc1cc(C)c(C(=O)O)c(O)c1,> 100,
COC(=O)Nc1nc2ccc(Oc3ccc(NC(=O)Nc4ccccc4)cc3)cc2[nH]1,0.878,0.0885
CCN(CC)CCCC(C)Nc1c(C)cnc2cc(Cl)c(C)cc12 (stereo not given),21.1,6.83
Cc1ccc2nc3c(C(=O)NCCN(C)C)cccc3nc2c1,15.7,

# Tested on: RXF 393 renal
# Test: DTP human tumour cell line panel, 48 h
SMILES,TGI,GI50 [µM]
C[N+](C)(C)CC1CCCC(C[N+](C)(C)C)C1=O (stereo not given),3.18 µM,
CCCCCCCCCCCCCC1CCC(CC)N1 (stereo not given),33 µM,
COc1ccc2c(c1)C=C([N+](=O)[O-])C(C1OC(C)(C)OC1C1COC(C)(C)O1)O2 (stereo not given),8.7 µM,
CC(=O)OC1Oc2ccccc2-c2oc(=O)c(-c3cc4ccc(N(C)C)cc4oc3=O)cc21 (stereo not given),15.2 µM,3.54
CCC1(O)C(=O)OCc2c1cc1n(c2=O)Cc2cc3ccc(C=O)cc3nc2-1 (stereo not given),20.8 µM and 13.1 µM,4.92
CC1(C)C2CC(O)C1(C)CC2=O (stereo not given),> 100 µM,
COc1ccc2c(c1)C(=O)c1c-2n(CCCn2ccnc2)c(=O)c2ccccc12,2 µM,0.431
COc1cc2oc(-c3ccc(O)cc3)cc(=O)c2c(OC)c1OC,> 100 µM,
COc1ccc(N2C(=O)C3c4[nH]c5ccc(C)cc5c4C4CCC(C(C)(C)C)CC4C3C2=O)cc1 (stereo not given),38.8 µM,
CC/C=C\C[C@@H]1C/C=C2/C(=O)C=C[C@H]2C/C=C\CCCC(=O)O1,1.73 µM,0.492
Cc1ccc(S(=O)(=O)n2c(-c3ccccc3)c(-c3ccccc3)c3ccccc32)cc1,> 100 µM,
NC(=S)N/N=C/c1ccc(OC(=O)COc2ccc(Cl)cc2)cn1,> 100 µM,5.48
O=C(N/N=C/c1cccc(O)c1O)c1ccccc1,> 100 µM,1.98
c1ccc(C2=NNC3c4ccccc4-c4ccccc4N3C2)cc1 (stereo not given),> 100 µM,
CN/N=C(/CCN1CCCC1)CC(c1ccccc1)c1c(O)c2ccccc2oc1=O (stereo not given),> 100 µM,
COc1ccc2c(c1)CCC1C3(CCCC21C)OCCO3 (stereo not given),31.1 µM,
COc1ccc(OC)c(/C=C/C(=O)N/N=C/c2ccc(Cl)cc2)c1,0.268 µM,0.0363
Cc1cc(C)nc(NS(=O)(=O)c2ccc(Nc3c4ccccc4nc4c(C(=O)Nc5ccc(S(=O)(=O)Nc6cc(C)on6)cc5)cccc34)cc2)n1,38.2 µM,
CCN(CC)c1sc(N(CC)CC)c2c1SSSSS2,,1.59
COc1cc(C2=NN(C(C)=O)C(c3ccc(OC(C)=O)cc3OC(C)=O)O2)c(OC(C)=O)c2ccccc12 (stereo not given),12.5 µM,1
COc1cc(OC(=O)c2c(O)cc(O)c(O)c2C)cc(C)c1C(=O)Oc1cc(C)c(C(=O)O)c(O)c1,> 100 µM,
COC(=O)Nc1nc2ccc(Oc3ccc(NC(=O)Nc4ccccc4)cc3)cc2[nH]1,0.533 µM,0.069
CCN(CC)CCCC(C)Nc1c(C)cnc2cc(Cl)c(C)cc12 (stereo not given),26.6 µM,8.75
Cc1ccc2nc3c(C(=O)NCCN(C)C)cccc3nc2c1,15.5 µM,

# Tested on: OVCAR-5 ovarian
# Test: DTP human tumour cell line panel, 48 h
SMILES,TGI,GI50 [µM]
C[N+](C)(C)CC1CCCC(C[N+](C)(C)C)C1=O (stereo not given),7.73 µM,
CCCCCCCCCCCCCC1CCC(CC)N1 (stereo not given),30.3 µM,
COc1ccc2c(c1)C=C([N+](=O)[O-])C(C1OC(C)(C)OC1C1COC(C)(C)O1)O2 (stereo not given),20.7 µM,
CC(=O)OC1Oc2ccccc2-c2oc(=O)c(-c3cc4ccc(N(C)C)cc4oc3=O)cc21 (stereo not given),30.8 µM,13.2
CCC1(O)C(=O)OCc2c1cc1n(c2=O)Cc2cc3ccc(C=O)cc3nc2-1 (stereo not given),50 µM and 55.2 µM,10.5
CC1(C)C2CC(O)C1(C)CC2=O (stereo not given),> 100 µM,
COc1ccc2c(c1)C(=O)c1c-2n(CCCn2ccnc2)c(=O)c2ccccc12,3.92 µM,1.24
COc1cc2oc(-c3ccc(O)cc3)cc(=O)c2c(OC)c1OC,> 100 µM,
CC/C=C\C[C@@H]1C/C=C2/C(=O)C=C[C@H]2C/C=C\CCCC(=O)O1,3.78 µM,1.51
Cc1ccc(S(=O)(=O)n2c(-c3ccccc3)c(-c3ccccc3)c3ccccc32)cc1,> 100 µM,
NC(=S)N/N=C/c1ccc(OC(=O)COc2ccc(Cl)cc2)cn1,> 100 µM,41.6
O=C(N/N=C/c1cccc(O)c1O)c1ccccc1,> 100 µM,3.71
c1ccc(C2=NNC3c4ccccc4-c4ccccc4N3C2)cc1 (stereo not given),> 100 µM,
CN/N=C(/CCN1CCCC1)CC(c1ccccc1)c1c(O)c2ccccc2oc1=O (stereo not given),> 100 µM,
COc1ccc2c(c1)CCC1C3(CCCC21C)OCCO3 (stereo not given),> 100 µM,
COc1ccc(OC)c(/C=C/C(=O)N/N=C/c2ccc(Cl)cc2)c1,> 100 µM,15.3
Cc1cc(C)nc(NS(=O)(=O)c2ccc(Nc3c4ccccc4nc4c(C(=O)Nc5ccc(S(=O)(=O)Nc6cc(C)on6)cc5)cccc34)cc2)n1,59 µM,
CCN(CC)c1sc(N(CC)CC)c2c1SSSSS2,3.2 µM,1.52
COc1cc(C2=NN(C(C)=O)C(c3ccc(OC(C)=O)cc3OC(C)=O)O2)c(OC(C)=O)c2ccccc12 (stereo not given),> 66.8 µM,5.64
COc1cc(OC(=O)c2c(O)cc(O)c(O)c2C)cc(C)c1C(=O)Oc1cc(C)c(C(=O)O)c(O)c1,> 100 µM,
COC(=O)Nc1nc2ccc(Oc3ccc(NC(=O)Nc4ccccc4)cc3)cc2[nH]1,> 14.4 µM,1.06
CCN(CC)CCCC(C)Nc1c(C)cnc2cc(Cl)c(C)cc12 (stereo not given),18 µM,5.56
Cc1ccc2nc3c(C(=O)NCCN(C)C)cccc3nc2c1,29.8 µM,
